This note sets out measurements from patent US20160192641A1, “STABLE EMULSION FORMULATION HINDERING INTERACTION ACROSS THE WATER-OIL INTERFACE” (Dow AgroSciences LLC, priority 2007, published 2016).

On the series, the source says:
For a given oil phase which is often designed to meet specific market, customer, or application needs, actives or other components in aqueous phase can form and grow large crystals in oil phase due to high solubilities and Oswald Ripening, and result in emulsion destabilization.

Turning to `O=C(Nc1ccc(F)cc1F)c1cccnc1Oc1cccc(C(F)(F)F)c1` [diflufenican], the “solubility in methyl soyate” value is more than 1 % by wt.

The molecule `COc1cnc(OC)n2nc(NS(=O)(=O)c3c(OCC(F)F)cccc3C(F)(F)F)nc12` [penoxsulam] displayed a solubilities in acetochlor of more than 1000 ppm.
